Source: PubChem BioAssay (NCI)
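Five concentrations, 48 hours, 96-well plates. GI50: concentration for 50% inhibition of growth. At the TGI there is no net growth.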

Legend:
Assay in all cases: NCI tumour cell line growth inhibition, 48 h
SF-295 CNS = system: SF-295 CNS
NCI/ADR-RES ovarian = system: NCI/ADR-RES ovarian
SK-MEL-2 melanoma = system: SK-MEL-2 melanoma
NCI-H23 lung = system: NCI-H23 lung
SN12C renal = system: SN12C renal
RPMI-8226 leukemia = system: RPMI-8226 leukemia
HCT-116 colon = system: HCT-116 colon
OVCAR-8 ovarian = system: OVCAR-8 ovarian
786-0 renal = system: 786-0 renal
T-47D breast = system: T-47D breast

Structure (SMILES)	TGI (SF-295 CNS) [µM]	TGI (NCI/ADR-RES ovarian) [µM]	TGI (SK-MEL-2 melanoma) [µM]	TGI (NCI-H23 lung) [µM]	TGI (SN12C renal) [µM]	TGI (RPMI-8226 leukemia) [µM]	TGI (HCT-116 colon) [µM]	TGI (OVCAR-8 ovarian) [µM]	TGI (786-0 renal) [µM]	TGI (T-47D breast) [µM]	GI50 (NCI/ADR-RES ovarian) [nM]	GI50 (SK-MEL-2 melanoma) [µM]	GI50 (NCI-H23 lung) [µM]	GI50 (HCT-116 colon) [nM]	GI50 (OVCAR-8 ovarian) [µM]	GI50 (SF-295 CNS) [µM]	GI50 (SN12C renal) [nM]	GI50 (RPMI-8226 leukemia) [µM]	GI50 (T-47D breast) [nM]
Cc1ccc(OCC2OC(n3cnc4nc(N)nc(Cl)c43)CC2Oc2ccc(C)cc2)cc1 (stereo not given)	84.1	47.2	37.7	36.9	41.4	56.5	> 100	50	> 100	34.7									
O=S(=O)(c1ccc(NC2=NC(c3ccc(O)cc3)(c3ccccc3O)c3ccccc32)cc1)c1ccc(NC2=NC(c3ccc(O)cc3)(c3ccccc3O)c3ccccc32)cc1 (stereo not given)	> 53.2	> 100	22.9	8.01	> 29.9	> 100	25.2	> 40.7	> 28.8										
N#CC1(C#N)NC(c2cccs2)C(C#N)(C#N)NC1c1cccs1 (stereo not given)	> 100	> 100	50.5	> 100	> 100	73.1	> 100	> 100	> 100	> 100									
Cc1cc(C)nc(SC2=C(Nc3ccc(C)c(Cl)c3)C(=O)N(Cc3ccccc3)C2=O)n1		> 160	> 160	> 160			> 160	> 160			> 160000	> 160	> 160	> 160000	> 160				
Cc1cccc(Nc2nn3c(=O)c4c5c(sc4nc3s2)CCCC5)c1	14.4	> 100	> 100	57.1	> 100		> 100	> 100	> 100	74.2									
C[n+]1cccc2c(=O)c3ccccc3oc21	> 100	> 100	> 100	> 100	> 100		> 100	> 100		> 100									
O=C1C[C@@H](C(=O)OCc2ccccc2)NC(=O)C[C@@H](C(=O)OCc2ccccc2)NC(=O)C[C@@H](C(=O)OCc2ccccc2)N1	> 100	> 100	66.1	> 100	> 100	> 100	> 100	> 100	> 100	> 100									
O=c1cc(N2CCCC2)[nH]c(=O)n1Cc1ccccc1	> 100	> 100	> 100	> 100	> 100	> 100	> 100	> 100	> 100										
O=C1C(Cl)=C(OCCCl)C(=O)c2c(O)ccc(O)c21	33.3	69.1		19.8	28	0.993	2.97	47.6	17.3	4									
COc1ccc(CC(N)c2ccc(OC)cc2)cc1 (stereo not given)	> 100	> 100		> 100	> 100	83	> 100	> 100	> 100	> 100									
O=C(N/N=C/C=C/c1ccc([N+](=O)[O-])o1)c1cc2ccccc2cc1O	21.2	7.27		2.75	18.9	6.83	1.4	21.7		3.68	1360		1.02	326	1.45	3.37	2020	1.53	1440
CCOc1ccc(N/C(=C(/C(Cl)=C(/Cl)N(CC)CC)[N+](=O)[O-])n2nnc3ccccc32)cc1	> 100	53.9	68.8	35	49.6	> 100	30.4	32.7	33.2	28.9									
NS(=O)(=O)c1ccc(/C=C/c2ccc(F)cc2)cc1	78.6	> 100	86.7	> 100	> 100	> 100	50.3	30	41.2	57.6			45.1		15.2			42.3	
C=C[C@@H](C)[C@H](NS(=O)(=O)c1ccc(C)cc1)C(=O)OCC	63.4	> 100	> 100	> 100	> 100	35.5	> 100	> 100	> 100										
CC1C(=O)N(c2ccccc2)NC12CCCc1ccccc12 (stereo not given)	> 100	> 100	> 100	> 100	> 100	> 100	> 100	> 100		> 100									
COc1ccc(N2C(=O)CC(=O)N(C(=O)COc3ccc(OCC(=O)N4C(=O)CC(=O)N(c5ccc(OC)cc5)C4=S)cc3)C2=S)cc1	> 100	> 100	> 100	> 100	> 100	> 100	39.5		> 100										
Cc1cc(S(=O)(=O)N/C(=C(\C#N)C(=O)c2ccc(Cl)cc2)[n+]2ccc(N(C)C)cc2)c([S-])cc1Cl	> 100	> 100	83.4		> 100	> 100	37.3	> 100	> 100	> 100									
Cc1csc(NC23CC4CC(CC(C4)C2)C3)[n+]1C(P(=O)([O-])O)P(=O)(O)O (stereo not given)	> 100	> 100		> 100		> 100	> 100	> 100	> 100										
COC(=O)c1cc(=O)[nH]c(=O)[nH]1	> 100	> 100	> 100	> 100	> 100		> 100	> 100	> 100	> 100									
CCOC(=O)CCC(NC(=O)OCc1ccccc1)C(=O)NC(CCC(=O)OCC)C(=O)NC(CCC(=O)OCC)C(=O)NC(CCC(=O)OCC)C(=O)NC(CCC(=O)OCC)C(=O)NC(CCC(=O)OCC)C(=O)NC(CCC(=O)OCC)C(=O)OCC (stereo not given)			> 100	> 100	> 100	> 100	> 100	> 100	> 100	> 100									
COP(=O)(OC)C(Cc1cn(C(C)=O)c2ccccc12)C(=O)O (stereo not given)	> 100	> 100	> 100	> 100	> 100	> 100	> 100	> 100		> 100									
